Laboratory results published in ChEMBL document CHEMBL1151264, “Investigation of brominated tryptophan alkaloids from two thorectidae sponges: Thorectandra and Smenospongia” (2005).
Values after ≈ are worked out from the molar mass of the structure shown.

The compounds below were run on Staphylococcus epidermidis (assay: Antibacterial activity against Staphylococcus epidermidis ATCC 12228).
Type: functional

SMILES	MIC
C[N+](C)(C)[C@@H](Cc1c[nH]c2ccc(Br)cc12)C(=O)O	100 µg/mL
CN[C@H](CC(C)C)C(=O)N[C@H]1C(=O)N[C@@H](CC(N)=O)C(=O)N[C@H]2C(=O)N[C@H]3C(=O)N[C@H](C(=O)N[C@H](C(=O)O)c4cc(O)cc(O)c4-c4cc3ccc4O)[C@H](O)c3ccc(c(Cl)c3)Oc3cc2cc(c3O[C@@H]2O[C@H](CO)[C@@H](O)[C@H](O)[C@H]2O[C@H]2C[C@](C)(N)[C@H](O)[C@H](C)O2)Oc2ccc(cc2Cl)[C@H]1O [VANCOMYCIN]	0.625 µg/mL (≈ 0.431 µM)
CN1C(=N)N(C)/C(=C/c2c[nH]c3ccccc23)C1=O [APLYSINOPSIN]	25 µg/mL (≈ 98.3 µM)
CN1C(=N)N(C)C(Cc2c[nH]c3cc(Br)ccc23)C1=O (stereo not given)	25 µg/mL (≈ 74.6 µM)
COC1(Cc2c[nH]c3cc(Br)ccc23)C(=O)N(C)C(=N)N1C (stereo not given)	100 µg/mL (≈ 274 µM)
CCOC1(Cc2c[nH]c3cc(Br)ccc23)C(=O)N(C)C(=N)N1C (stereo not given)	12.5 µg/mL (≈ 33 µM)
CN(C)[C@@H](Cc1c[nH]c2ccc(Br)cc12)C(=O)O	25 µg/mL (≈ 80.3 µM)

Now from value to compound:

MIC	SMILES
6.25 µg/mL (≈ 23.3 µM)	COC(=O)Cc1c[nH]c2cc(Br)ccc12
12.5 µg/mL (≈ 35.6 µM)	CN1C(=N)N(C)C(O)(Cc2c[nH]c3cc(Br)ccc23)C1=O (stereo not given)
50 µg/mL (≈ 197 µM)	COC(=O)c1c[nH]c2cc(Br)ccc12
